US20260146236A1, “HUMAN SEBACEOUS GLAND CARCINOMA CELL LINE AND US THEREOF” (SHANGHAI NINTH PEOPLE'S HOSPITAL, SHANGHAI JIAOTONG …, priority 2023, published 2026)
Like-named read-outs stand apart in the source and are kept apart here.

How the values were obtained:
[1] = system: sebaceous gland carcinoma cell line SHNPH-SeC; assay: Drug sensitivity test of SHNPH-SeC cells (CCK-8 cell viability); type: cell-based, human; conditions: 48 h, cell viability by CCK-8, read-out: Half-maximal effective concentration (EC50)
Description: Cells in a logarithmic growth phase were harvested and prepared into a cell suspension at a concentration of 2×10^4 cells/mL. The cell suspension was inoculated into a 96-well plate at 100 μL/well. The cell proliferation in the 96-well plate was measured by the CCK-8 method on day 0, day 1, day 2, day 3, and day 4. The CCK-8 method was performed according to instructions of a kit. Specifically, a sample was incubated with 10 μL of a CCK-8 solution for 2 h in a 37° C. and 5% CO2 incubator, and an OD value was then measured at 450 nm. As shown in the growth curve of FIG. 3A, the sebaceous gland carcinoma cell line SHNPH-SeC required a doubling time of approximately 36 h, indicating a strong proliferative capacity.
Cells in a logarithmic growth phase were collected and prepared into a cell suspension with a concentration of 2×10^4 cells/mL. […] When a cell density reached approximately 80%, MMC was added to each well at concentrations of 0 μmol/L, 0.15625 μmol/L, 0.3125 μmol/L, 0.625 μmol/L, 1.25 μmol/L, 2.5 μmol/L, 5 μmol/L, 10 μmol/L, and 20 μmol/L or 5-FU was added to each well at concentrations of 0 μmol/L, 5 μmol/L, 10 μmol/L, 20 μmol/L, 40 μmol/L, 80 μmol/L, 160 μmol/L, 320 μmol/L, and 640 μmol/L. 48 h later, a cell viability in each well was detected by the CCK-8 method, with a specific process as described in section 2.3. […]

[2] = system: sebaceous gland carcinoma cell line BP50 without a TP53 mutation; conditions: BP50 cells without a TP53 mutation, previously reported; cited from earlier work

Compound	EC50 [1] [µM]	EC50 [2] [µM]	EC50 ([1]; Homo sapiens) [µM]
CO[C@@]12[C@H](COC(N)=O)C3=C(C(=O)C(C)=C(N)C3=O)N1C[C@@H]1N[C@@H]12 [MMC, mitomycin C]	1.13	10.4	–
O=c1[nH]cc(F)c(=O)[nH]1 [5-FU, 5-fluorouracil]	–	–	83
